Experimental findings from patent US20210230170A1, “KRAS G12C INHIBITORS” (Mirati Therapeutics, Inc., priority 2018, published 2021) are described below.

Where only a bound is given, the exact number is not on record here.

As a reminder, the IC50 is the midpoint of a concentration-inhibition curve. A higher IC50 goes with weaker potency in that assay.

This experiment deals with T1, KRas G12C (Homo sapiens, UniProt P01116, G12C).
T1 construct: NCI-H358 cells (ATCC CRL-5807) express KRas G12C; host or cells: NCI-H358
Nature of the experiment: Inhibition of KRas G12C in NCI-H358 cells measured by phosphorylated ERK (Phospho-ERK). The note with it: pERK(Thr202/Tyr204) signal normalized with GAPDH, percent of DMSO control, 3 hours compound treatment. The class given is cell-based. Here is the method:
The cellular inhibition of KRAs G12C by exemplary compounds of the present invention was determined by measuring the amount of a downstream marker of KRas activity, phosphorylated ERK (“Phospho-ERK”).
NCI-H358 cells (ATCC CRL-5807) express KRas G12C and were grown in RPMI medium supplemented with 10% fetal bovine serum, penicillin/streptomycin and 10 mM HEPES. Cells were plated in poly-D-Lysine coated 96-well plates at a concentration of 50,000 cells/well and allowed to attach for 8-12 hours. Diluted compounds were then added at a final concentration of 0.5% DMSO. After 3 hours, the medium was removed, 150 μL of 4% formaldehyde was added and the plates were incubated for 20 minutes. The plates were washed with PBS, and permeabilized using 150 μL of ice cold 100% methanol for 10 minutes. Non-specific antibody binding to the plates was blocked using 100 μL Licor Blocking Buffer (Li-Cor Biotechnology, Lincoln Nebr.) for 1 hour at room temperature. Positive control samples and samples lacking cells were parallel processed with test samples as standards.
The amount Phospho-ERK was determined using an antibody specific for the phosphorylated form of ERK and compared to the amount of GAPDH. Primary antibodies used for detection were added as follows: Phospho-ERK (Cell Signaling cs9101) diluted 1:500 and GAPDH (Millipore MAB374) diluted 1:5000 in Licor block+0.05% Tween 20. The plates were incubated for 2 hours at room temperature. The plates were washed with PBS+0.05% Tween 20.
Secondary antibodies used to visualize primary antibodies were added as follows: Anti-rabbit-680 diluted 1:1000 and Anti-mouse-800 diluted 1:1000 in Licor Block+0.05% Tween 20 and incubated for 1 hour at room temperature. The plates were washed with PBS+0.05% Tween 20. A 100 μL aliquot of PBS was added to each well and the plates were read on a LICOR AERIUS plate reader.
The pERK(Thr202/Tyr204) signal was normalized with the GAPDH signal and percent of DMSO control values were calculated. IC50 values were generated using a 4 parameter fit of the dose response curve. Key: “A”≤500 nM; “B”>500 nM and ND=not determined.

T1 sequence (P01116 1-188 isoform P01116-2 G12C): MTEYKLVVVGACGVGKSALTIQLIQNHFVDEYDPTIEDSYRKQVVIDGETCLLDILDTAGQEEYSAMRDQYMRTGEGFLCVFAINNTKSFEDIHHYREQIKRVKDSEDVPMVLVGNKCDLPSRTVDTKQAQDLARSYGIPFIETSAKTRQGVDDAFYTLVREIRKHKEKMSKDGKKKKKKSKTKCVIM

With `C=CC(=O)N1CCN(c2nc(OC[C@@H]3CCCN3C)nc3c2CCCN(c2cccc4cccc(C)c24)C3)C[C@@H]1CC#N` [Example 1, 2-[(2S)-4-[8-(8-methyl-1-naphthyl)-2-[[(2S)-1-Methylpyrrolidin-2-yl]methoxy]-5,6,7,9-tetrahydropyrimido[4,5-c]azepin-4-yl]-1-prop-2-enoyl-piperazin-2-yl]acetonitrile], the IC50 was ≤ 0.5 µM. The same measure for `C=C(F)C(=O)N1CCN(c2nc(OC[C@@H]3CCCN3C)nc3c2CCCN(c2cccc4cccc(C)c24)C3)C[C@@H]1CC#N` [Example 2, 2-[(2S)-1-(2-fluoroprop-2-enoyl)-4-[8-(8-methyl-1-naphthyl)-2-[[(2S)-1-methylpyrrolidin-2-yl]methoxy]-5,6,7,9-tetrahydropyrimido[4,5-c]azepin-4-yl]piperazin-2-yl]acetonitrile]: > 0.5 µM. For `C=CC(=O)N1CCN(c2nc(OC[C@@H]3CCCN3C)nc3c2CCCN(c2c(C)ccc4ccccc24)C3)C[C@@H]1CC#N` [Example 3, 2-[(2S)-4-[8-(2-methyl-1-naphthyl)-2-[[(2S)-1-methylpyrrolidin-2-yl]methoxy]-5,6,7,9-tetrahydropyrimido[4,5-c]azepin-4-yl]-1-prop-2-enoyl-piperazin-2-yl]acetonitrile] the value was ≤ 0.5 µM; for `C=CC(=O)N1CCN(c2nc(OC[C@@H]3CCCN3C)nc3c2CCCN(c2ccccc2C)C3)C[C@@H]1CC#N` [Example 4, 2-[(2S)-4-[2-[[(2S)-1-methylpyrrolidin-2-yl]methoxy]-8-(o-tolyl)-5,6,7,9-tetrahydropyrimido[4,5-c]azepin-4-yl]-1-prop-2-enoyl-piperazin-2-yl]acetonitrile], > 0.5 µM; for `C=CC(=O)N1CCN(c2nc(OC[C@@H]3CCCN3C)nc3c2CCCN(c2ccccc2)C3)C[C@@H]1CC#N` [Example 5, 2-[(2S)-4[2-[[(2S)-1-methylpyrrolidin-2-yl]methoxy]-8-phenyl-5,6,7,9-tetrahydropyrimido[4,5-c]azepin-4-yl]-1-prop-2-enoyl-piperazin-2-yl]acetonitrile], > 0.5 µM. Regarding `C=CC(=O)N1CCN(c2nc(OC[C@@H]3CCCN3C)nc3c2CCCN(c2cccc4ccccc24)C3)C[C@@H]1CC#N` [Example 6, 2-[(2S)-4-[2-[[(2S)-1-methylpyrrolidin-2-yl]methoxy]-8-(1-naphthyl)-5,6,7,9-tetrahydropyrimido[4,5-c]azepin-4-yl]-1-prop-2-enoyl-piperazin-2-yl]acetonitrile], the IC50 was > 0.5 µM. In the case of `C=CC(=O)N1CCN(c2nc(OC[C@@H]3CCCN3C)nc3c2CCCN(c2cccc4cccc(Cl)c24)C3)C[C@@H]1CC#N` [Example 7, 2-((S)-1-acryloyl-4-(8-(8-chloronaphthalen-1-yl)-2-(((S)-1-methylpyrrolidin-2-yl)methoxy)-6,7,8,9-tetrahydro-5H-pyrimido[4,5-c]azepin-4-yl)piperazin-2-yl)acetonitrile], the IC50 is > 0.5 µM. On to `C=CC(=O)N1CCN(c2nc(OC[C@@H]3CCCN3C)nc3c2CCCN(c2cccc(C(C)C)c2)C3)C[C@@H]1CC#N` [Example 8, 2-[(2S)-4-[8-(3-isopropylphenyl)-2-[[(2S)-1-methylpyrrolidin-2-yl]methoxy]-5,6,7,9-tetrahydropyrimido[4,5-c]azepin-4-yl]-1-prop-2-enoyl-piperazin-2-yl]acetonitrile], for which the IC50 is > 0.5 µM. For `C=CC(=O)N1CCN(c2nc(OC[C@@H]3CCCN3C)nc3c2CCCN(c2cccc(F)c2C)C3)C[C@@H]1CC#N` [Example 9, 2-((S)-1-acryloyl-4-(8-(3-fluoro-2-methylphenyl)-2-(((S)-1-methylpyrrolidin-2-yl)methoxy)-6,7,8,9-tetrahydro-5H-pyrimido[4,5-c]azepin-4-yl)piperazin-2-yl)acetonitrile], the IC50 was ≤ 0.5 µM. For `C=CC(=O)N1CCN(c2nc(OC[C@@H]3CCCN3C)nc3c2CCCN(c2c(F)ccc4ccccc24)C3)C[C@@H]1CC#N` [Example 10, 2-((S)-1-acryloyl-4-(8-(2-fluoronaphthalen-1-yl)-2-(((S)-1-methylpyrrolidin-2-yl)methoxy)-6,7,8,9-tetrahydro-5H-pyrimido[4,5-c]azepin-4-yl)piperazin-2-yl)acetonitrile], the IC50 was ≤ 0.5 µM. As for `C=CC(=O)N1CCN(c2nc(OC[C@@H]3CCCN3C)nc3c2CCCN(c2cccc4c(C)cccc24)C3)C[C@@H]1CC#N` [Example 11, 2-((S)-1-acryloyl-4-(8-(5-methylnaphthalen-1-yl)-2-(((S)-1-methylpyrrolidin-2-yl)methoxy)-6,7,8,9-tetrahydro-5H-pyrimido[4,5-c]azepin-4-yl)piperazin-2-yl)acetonitrile], the IC50 was > 0.5 µM. For `C=CC(=O)N1CCN(c2nc(OC[C@@H]3CCCN3C)nc3c2CCCN(c2cccc4c(F)cccc24)C3)C[C@@H]1CC#N` [Example 12, 2-((S)-1-acryloyl-4-(8-(5-fluoronaphthalen-1-yl)-2-(((S)-1-methylpyrrolidin-2-yl)methoxy)-6,7,8,9-tetrahydro-5H-pyrimido[4,5-c]azepin-4-yl)piperazin-2-yl)acetonitrile] the value was ≤ 0.5 µM; for `C=CC(=O)N1CCN(c2nc(OC[C@@H]3CCCN3C)nc3c2CCCN(c2cccc(F)c2C(F)(F)F)C3)C[C@@H]1CC#N` [Example 14, 2-[(2S)-4-[8-[3-fluoro-2-(trifluoromethyl)phenyl]-2-[[(2S)-1-methylpyrrolidin-2-yl]methoxy]-5,6,7,9-tetrahydropyrimido[4,5-c]azepin-4-yl]-1-prop-2-enoyl-piperazin-2-yl]acetonitrile], ≤ 0.5 µM. For `C=CC(=O)N1CCN(c2nc(OC[C@@H]3CCCN3C)nc3c2CCCN(c2ncccc2C(F)(F)F)C3)C[C@@H]1CC#N` [Example 15, 2-[(2S)-4-[2-[[(2S)-1-methylpyrrolidin-2-yl]methoxy]-8-[3-(trifluoromethyl)-2-pyridyl]-5,6,7,9-tetrahydropyrimido[4,5-c]azepin-4-yl]-1-prop-2-enoyl-piperazin-2-yl]acetonitrile] the value was > 0.5 µM; for `C=CC(=O)N1CCN(c2nc(OC[C@@H]3CCCN3C)nc3c2CCCN(c2ccccc2CO)C3)C[C@@H]1CC#N` [Example 16, 2-[(2S)-4-[8-[2-(hydroxymethyl)phenyl]-2-[[(2S)-1-methylpyrrolidin-2-yl]methoxy]-5,6,7,9-tetrahydropyrimido[4,5-c]azepin-4-yl]-1-prop-2-enoyl-piperazin-2-yl]acetonitrile], > 0.5 µM; for `C=CC(=O)N1CCN(c2nc(OC[C@@H]3CCCN3C)nc3c2CCCN(c2nccc4cccc(C)c24)C3)C[C@@H]1CC#N` [Example 17, 2-[(2S)-4-[8-(8-methyl-1-isoquinolyl)-2-[[(2S)-1-methylpyrrolidin-2-yl]methoxy]-5,6,7,9-tetrahydropyrimido[4,5-c]azepin-4-yl]-1-prop-2-enoyl-piperazin-2-yl]acetonitrile], ≤ 0.5 µM. For the compound `C=CC(=O)N1CCN(c2nc(OC[C@@H]3CCCN3C)nc3c2CCCN(c2c(C)cccc2F)C3)C[C@@H]1CC#N` [Example 18, 2-[(2S)-4-[8-(2-fluoro-6-methyl-phenyl)-2-[[(2S)-1-methylpyrrolidin-2-yl]methoxy]-5,6,7,9-tetrahydropyrimido[4,5-c]azepin-4-yl]-1-prop-2-enoyl-piperazin-2-yl]acetonitrile], the IC50 is ≤ 0.5 µM. The same measure for `C=CC(=O)N1CCN(c2nc(OC[C@@H]3CCCN3C)nc3c2CCCN(c2c(C)ccc4[nH]ncc24)C3)C[C@@H]1CC#N` [Example 19, 2-[(2S)-4-[8-(5-methyl-1H-indazol-4-yl)-2-[[(2S)-1-methylpyrrolidin-2-yl]methoxy]-5,6,7,9-tetrahydropyrimido[4,5-c]azepin-4-yl]-1-prop-2-enoyl-piperazin-2-yl]acetonitrile]: > 0.5 µM. For `C=C(F)C(=O)N1CCN(c2nc(OC[C@@H]3CCCN3C)nc3c2CCCN(c2c(C)ccc4[nH]ncc24)C3)C[C@@H]1CC#N` [Example 20, 2-[(2S)-1-(2-fluoroprop-2-enoyl)-4-[8-(5-methyl-1H-indazol-4-yl)-2-[[(2S)-1-methylpyrrolidin-2-yl]methoxy]-5,6,7,9-tetrahydropyrimido[4,5-c]azepin-4-yl]piperazin-2-yl]acetonitrile] the value was > 0.5 µM.

In the case of `C=CC(=O)N1CCN(c2nc(OC[C@@H]3CCCN3C)nc3c2CCCN(c2cccc4cccc(C(F)(F)F)c24)C3)C[C@@H]1CC#N` [Example 21, 2-((S)-1-acryloyl-4-(2-(((S)-1-methylpyrrolidin-2-yl)methoxy)-8-(8-(trifluoromethyl)naphthalen-1-yl)-6,7,8,9-tetrahydro-5H-pyrimido[4,5-c]azepin-4-yl)piperazin-2-yl)acetonitrile], the IC50 is > 0.5 µM.
